Source: paper PMC5769417, “Single- and Multiple-Dose Trials to Determine the Pharmacokinetics, Safety, Tolerability, and Sex Effect of Oral Ginsenoside Compound K in Healthy Chinese Volunteers” (Frontiers in Pharmacology, 2018)

Tests used:
[1] = Multiple-dose trial, plasma pharmacokinetics; type: in vivo, human
Description: Multiple-dose pharmacokinetics: […] Multiple-dose pharmacokinetics: […] All samples were preserved at −70°C and analyzed with a LC-MS/MS (API 4000 LC-MS/MS, ABI Company, Foster City, CA, USA) at the Institute of Clinical Pharmacology, Central South University (Changsha, China). […] An aqueous solution of a stable internal standard (IS for CK: digoxin, Shijiaoke Biological Technology Co. Ltd., Beijing, China; IS for PPD: coumarin, Sigma-Aldrich, St. Louis, USA) and 1 M phosphate buffer were added to 0.5 ml of thawed sample, and analytical standards and quality control (QC) samples were prepared in the same matrix. All samples were treated with 2 ml of methyl tert-butyl ether (MTBE, CNW technologies GmbH, Duesseldorf, Germany) to precipitate the bulk of plasma proteins. After mechanical shock by mixing for 10 min and a subsequent centrifugation (4,000 rpm, 4°C, 10 min), 1.4 ml of the supernatant was transferred and blow-dried with nitrogen in a water bath at 40°C. Lastly, the residue was dissolved in 100 μl of mobile phase and then was subjected to a mechanical shock by mixing, and centrifuged. The supernatant was subsequently injected into the column for analysis. […] Accuracy and precision of the assay were determined by evaluating the performance of the assay controls. Over the quantification range, the accuracy of the QC samples varied from 85 to 115% and the intra- and inter-assay imprecision was <15%. […] The area under the curve (AUC) from time zero to the last time point (AUClast) and the AUC extrapolated to infinity (AUCinf) were calculated using the linear trapezoidal rule. The slope (elimination rate constant, K) of the terminal phase of the plasma concentration-time profile was determined, using a weighting factor of 1, by the method of least squares (log-linear regression of at least three data points). The t1/2 was estimated as (ln2)/K. […] The apparent volume of distribution (V/F) was equal to (CL/F)/K. The mean residence time (MRT) was calculated as the area under the first moments curve (AUMC) divided by AUC. The dose-normalized PK parameters e.g., Cmax/D and AUClast/D, were obtained by dividing each PK result by the administered dose. The cumulative excretion rate was calculated as the amount of unchanged drug in the urine over a time interval divided by the dose and was expressed as thousand points (‰). On day 15 in the multiple-dose trial, the PK parameters, such as t1/2, CL/F, and V/F at steady state were calculated using the same method as that used for the single-dose trial. In addition, the Tmax at steady state (Tmax,ss), Cmax at steady state (Cmax,ss), and Cmin,ss were obtained from experimental observation after the steady state during the multiple-dose trial. […] The average steady-state drug concentration (Cavg) is calculated as AUCτ/τ, and the fluctuation ratio was calculated as (Cmax,ss − Cmin,ss)/Cavg. The accumulation index was calculated using dosing interval and elimination rate constant as in the following equation: 1/(1 − e^−Kτ).

[2] = Single-dose trial, plasma pharmacokinetics; type: in vivo, human; settings: single-dose trial, fasting
Description: Single-dose pharmacokinetics: The single-dose trial was performed first. […] Drinking before and after medication was prohibited for 2 h, but the amount and time of drinking were not strictly controlled at other times. All subjects had standard lunch and dinner (unified light diet) after medication 4 and 10 h. Single-dose pharmacokinetics: […] We preserved 8 ml specimens into 10 ml centrifuge tubes and stored at −70°C for PK assessment. All samples were preserved at −70°C and analyzed with a LC-MS/MS (API 4000 LC-MS/MS, ABI Company, Foster City, CA, USA) at the Institute of Clinical Pharmacology, Central South University (Changsha, China). […] An aqueous solution of a stable internal standard (IS for CK: digoxin, Shijiaoke Biological Technology Co. Ltd., Beijing, China; IS for PPD: coumarin, Sigma-Aldrich, St. Louis, USA) and 1 M phosphate buffer were added to 0.5 ml of thawed sample, and analytical standards and quality control (QC) samples were prepared in the same matrix. All samples were treated with 2 ml of methyl tert-butyl ether (MTBE, CNW technologies GmbH, Duesseldorf, Germany) to precipitate the bulk of plasma proteins. After mechanical shock by mixing for 10 min and a subsequent centrifugation (4,000 rpm, 4°C, 10 min), 1.4 ml of the supernatant was transferred and blow-dried with nitrogen in a water bath at 40°C. Lastly, the residue was dissolved in 100 μl of mobile phase and then was subjected to a mechanical shock by mixing, and centrifuged. The supernatant was subsequently injected into the column for analysis. […] Accuracy and precision of the assay were determined by evaluating the performance of the assay controls. Over the quantification range, the accuracy of the QC samples varied from 85 to 115% and the intra- and inter-assay imprecision was <15%. PK parameters were derived according to noncompartmental analysis and actual elapsed time from dosing by WinNonlin version 6.1 (Pharsight Corporation, Mountain View, CA, USA). […] The area under the curve (AUC) from time zero to the last time point (AUClast) and the AUC extrapolated to infinity (AUCinf) were calculated using the linear trapezoidal rule. The slope (elimination rate constant, K) of the terminal phase of the plasma concentration-time profile was determined, using a weighting factor of 1, by the method of least squares (log-linear regression of at least three data points). The t1/2 was estimated as (ln2)/K. […] The apparent volume of distribution (V/F) was equal to (CL/F)/K. The mean residence time (MRT) was calculated as the area under the first moments curve (AUMC) divided by AUC. The dose-normalized PK parameters e.g., Cmax/D and AUClast/D, were obtained by dividing each PK result by the administered dose. The cumulative excretion rate was calculated as the amount of unchanged drug in the urine over a time interval divided by the dose and was expressed as thousand points (‰).

[3] = 100 mg oral after breakfast, Day 1
[4] = 100 mg qd oral after breakfast, Day 15
[5] = 200 mg oral after breakfast, Day 1
[6] = 200 mg qd oral after breakfast, Day 15
[7] = 400 mg oral after breakfast, Day 1
[8] = 400 mg qd oral after breakfast, Day 15

With `CC(C)=CCC[C@](C)(O)[C@H]1CC[C@]2(C)[C@@H]1[C@H](O)C[C@@H]1[C@@]3(C)CC[C@H](O)C(C)(C)[C@@H]3CC[C@]12C` [20(S)-PPD, 20(S)-protopanaxadiol] the AUClast [1, 3] was 60.6 ± 44.9 ng·h/mL, the Cmax [1, 3] was 1.8 ± 1.1 ng/mL and the “Tmax, median (range)” value [1, 3] was 24.0 (24.0–36.0) h. The AUClast [1, 4] was 154.5 ± 81.8 ng·h/mL, the Cmax [1, 4] was 5.0 ± 2.5 ng/mL and the “Tmax, median (range)” value [1, 4] was 5.5 (0.3–24.0) h. The AUClast [1, 5] was 54.1 ± 58.8 ng·h/mL, the Cmax [1, 5] was 2.3 ± 3.4 ng/mL and the “Tmax, median (range)” value [1, 5] was 7.0 (4.0-48.0) h. For the same compound, the AUClast [1, 6] was 170.9 ± 191.0 ng·h/mL, the Cmax [1, 6] was 5.7 ± 6.1 ng/mL and the “Tmax, median (range)” value [1, 6] was 6.0 (0.3–24.0) h. The AUClast [1, 7] was 133.1 ± 127.6 ng·h/mL, the Cmax [1, 7] was 4.3 ± 3.6 ng/mL and the “Tmax, median (range)” value [1, 7] was 16.0 (3.0–36.0) h. The AUClast [1, 8] was 463.1 ± 512.3 ng·h/mL, the Cmax [1, 8] was 11.0 ± 10.2 ng/mL and the “Tmax, median (range)” value [1, 8] was 5.5 (0.5–8.0) h. For the same compound, the “concentration of metabolite relative to the parent drug” value ([1]; Day 1, 100–400 mg CK) was 0.08–0.16%, the AUClast ([2]; 25 mg oral) was 32.4 ± 26.2 ng·h/mL and the Cmax ([2]; 25 mg oral) was 1.6 ± 1.2 ng/mL. For the same compound, the “Tmax, median (range)” value ([2]; 25 mg oral) was 12.0 (8.0–24.0) h, the AUClast ([2]; 50 mg oral) was 43.9 ± 12.0 ng·h/mL and the Cmax ([2]; 50 mg oral) was 1.8 ± 0.6 ng/mL. For the same compound, the “Tmax, median (range)” value ([2]; 50 mg oral) was 24.0 (12.0–24.0) h, the AUClast ([2]; 100 mg oral) was 167.6 ± 125.0 ng·h/mL and the Cmax ([2]; 100 mg oral) was 6.3 ± 4.2 ng/mL. For the same compound, the “Tmax, median (range)” value ([2]; 100 mg oral) was 24.0 (12.0–36.0) h, the AUClast ([2]; 200 mg oral) was 117.8 ± 94.9 ng·h/mL and the Cmax ([2]; 200 mg oral) was 3.5 ± 2.7 ng/mL. The “Tmax, median (range)” value ([2]; 200 mg oral) was 24.0 (6.0–36.0) h, the AUClast ([2]; 400 mg oral) was 157.1 ± 174.6 ng·h/mL and the Cmax ([2]; 400 mg oral) was 4.8 ± 4.3 ng/mL. For the same compound, the “Tmax, median (range)” value ([2]; 400 mg oral) was 24.0 (5.0–48.0) h, the AUClast ([2]; 600 mg oral) was 269.8 ± 251.4 ng·h/mL and the Cmax ([2]; 600 mg oral) was 9.5 ± 9.8 ng/mL. For the same compound, the “Tmax, median (range)” value ([2]; 600 mg oral) was 36.0 (24.0–72.0) h, the AUClast ([2]; 800 mg oral) was 179.1 ± 171.0 ng·h/mL and the Cmax ([2]; 800 mg oral) was 5.1 ± 5.3 ng/mL. For the same compound, the “Tmax, median (range)” value ([2]; 800 mg oral) was 30.0 (3.0–72.0) h.
